Experimental data reported in publication PMC6151550, “Inhibitory Effect of Selaginellins from Selaginella tamariscina (Beauv.) Spring against Cytochrome P450 and Uridine 5′-Diphosphoglucuronosyltransferase Isoforms on Human Liver Microsomes” (Molecules : A Journal of Synthetic Chemistry and Natural …, 2017).
Like-named read-outs stand apart in the source and are kept apart here.

Key:
Format in all cases: in vitro ADME
CYP1A2 = target: T1, CYP1A2 (Homo sapiens, UniProt P05177); assay: CYP1A2 inhibition (phenacetin O-deethylase) in human liver microsomes, substrate cocktail LC-MS/MS
T1 construct: the incubation mixtures containing pooled HLMs (0.25 mg/mL, H2630, Xenotech); tissue Xenotech H2630; host or cells: pooled human liver microsomes
T1 sequence (P05177 1-516): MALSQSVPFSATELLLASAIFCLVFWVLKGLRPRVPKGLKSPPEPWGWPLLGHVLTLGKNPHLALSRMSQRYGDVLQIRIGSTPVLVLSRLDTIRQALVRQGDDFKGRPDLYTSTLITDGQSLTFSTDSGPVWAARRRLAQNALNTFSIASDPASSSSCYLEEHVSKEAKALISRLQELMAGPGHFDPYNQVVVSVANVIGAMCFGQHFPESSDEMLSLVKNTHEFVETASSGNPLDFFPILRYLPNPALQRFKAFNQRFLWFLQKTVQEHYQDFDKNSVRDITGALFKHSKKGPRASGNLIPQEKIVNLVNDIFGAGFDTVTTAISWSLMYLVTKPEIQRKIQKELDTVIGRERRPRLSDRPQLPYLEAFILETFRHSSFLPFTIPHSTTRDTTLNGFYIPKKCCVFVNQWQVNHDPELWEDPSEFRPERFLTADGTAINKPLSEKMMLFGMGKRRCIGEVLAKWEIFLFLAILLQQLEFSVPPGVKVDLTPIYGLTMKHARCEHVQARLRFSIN
Experimental: (§1) The inhibitory effects of two selaginellins on the metabolism of ten P450 probe substrates were evaluated using previously reported method with minor modification. Phenacetin O-deethylase, coumarin 7-hydroxylase, bupropion 4-hydroxylase, amodiaquine N-deethylase, tolbutamide 4-hydroxylase, omeprazole 5-hydroxylase, dextromethorphan O-demethylase, chlorzoxazone 6-hydroxylase and midazolam 1′-hydroxylase activities were determined as probe activities for CYP1A2, CYP2A6, CYP2B6, CYP2C8, CYP2C9, CYP2C19, CYP2D6, CYP2E1 and […], respectively, using substrate cocktail incubation and tandem mass spectrometry (Table 2). Selaginellins were dissolved in methanol. The final concentrations of organic solvent (methanol) for the cocktail incubation conditions in all experiments were 1.0% (v/v). In brief, the incubation mixtures containing pooled HLMs (0.25 mg/mL, H2630, Xenotech), P450 probe substrate cocktail, and inhibitor (0, 0.5, 2, 5, 20 and 50 μM) were preincubated at 37 °C for 5 min. […] After mixing and centrifugation, aliquots were analyzed by liquid chromatography-tandem mass spectrometry (LC-MS/MS) as previous described. The CYP2J2 inhibitory effects of two selaginellins were also evaluated in pooled HLMs using previously reported method. […]

CYP2J2 = target: T2, CYP2J2 (Homo sapiens, UniProt P51589); assay: CYP2J2 inhibition (astemizole O-demethylation) in pooled human liver microsomes, LC-MS/MS; conditions: IC50 P450 isoform 2J2, pooled HLMs 0.25 mg/mL, astemizole 1.0 μM
T2 construct: from tissue; host or cells: pooled human liver microsomes
T2 sequence (P51589 1-502): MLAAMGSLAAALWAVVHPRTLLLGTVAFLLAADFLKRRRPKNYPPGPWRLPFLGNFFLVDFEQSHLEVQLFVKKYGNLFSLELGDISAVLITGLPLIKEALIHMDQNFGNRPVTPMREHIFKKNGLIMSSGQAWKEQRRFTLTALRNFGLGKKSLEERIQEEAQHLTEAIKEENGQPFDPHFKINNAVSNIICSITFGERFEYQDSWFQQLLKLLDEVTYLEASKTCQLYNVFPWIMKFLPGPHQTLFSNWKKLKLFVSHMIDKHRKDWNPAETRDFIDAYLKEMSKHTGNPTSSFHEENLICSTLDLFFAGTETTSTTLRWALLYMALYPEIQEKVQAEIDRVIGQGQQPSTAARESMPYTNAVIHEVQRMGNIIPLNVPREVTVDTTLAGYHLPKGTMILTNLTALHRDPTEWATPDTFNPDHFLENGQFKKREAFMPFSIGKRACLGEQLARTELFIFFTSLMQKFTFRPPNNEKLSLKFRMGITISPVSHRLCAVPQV
Experimental: as §1

UGT2B7 = target: T3, UGT2B7 (Homo sapiens, UniProt P16662); assay: UGT2B7 inhibition (naloxone glucuronidation) in human liver microsomes, cocktail LC-MS/MS
T3 construct: from tissue; host or cells: human liver microsomes
T3 sequence (P16662 24-529): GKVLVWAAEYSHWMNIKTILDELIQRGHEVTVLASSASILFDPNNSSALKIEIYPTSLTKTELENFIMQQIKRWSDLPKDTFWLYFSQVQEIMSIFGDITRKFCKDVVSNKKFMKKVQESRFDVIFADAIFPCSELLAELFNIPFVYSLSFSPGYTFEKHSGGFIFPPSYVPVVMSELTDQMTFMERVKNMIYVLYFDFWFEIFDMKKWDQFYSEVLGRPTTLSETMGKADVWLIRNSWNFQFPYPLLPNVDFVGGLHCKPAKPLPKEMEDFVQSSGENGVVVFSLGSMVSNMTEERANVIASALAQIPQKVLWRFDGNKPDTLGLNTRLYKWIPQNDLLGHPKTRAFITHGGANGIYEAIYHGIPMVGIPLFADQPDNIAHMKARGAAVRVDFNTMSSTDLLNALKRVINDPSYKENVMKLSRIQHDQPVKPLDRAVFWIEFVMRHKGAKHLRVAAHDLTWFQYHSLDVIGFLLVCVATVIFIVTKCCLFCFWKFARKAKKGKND
Experimental: The inhibitory effects of two selaginellins on the metabolism of six UGT probe substrates were evaluated using previously reported method with minor modification. In brief, HLMs (0.25 mg/mL) were activated by incubation in the presence of alamethicin (25 μg/mL) for 15 min on ice. After the addition of UGT isoform-selective substrates and selaginellins (0, 0.5, 2, 5, 20 and 50 μM) the final concentrations of organic solvent (methanol) for the cocktail incubation conditions were 1.0% (v/v). The incubation reaction mixtures were pre-incubated for 5 min. The reaction was initiated by the addition of 5 mM UDPGA and further incubated for 60 min. All reactions were terminated by adding ice-cold acetonitrile containing estrone glucuronide (IS). After mixing and centrifugation, aliquots were injected into a LC-MS/MS as described previously (Table 2). All microsomal incubations were performed in triplicate.
The IC50 values (concentration of the inhibitor causing 50% inhibition of the original enzyme activity) were calculated using WinNonlin software (Pharsight, Mountain View, CA, USA): percentage of control activity = 100 × [1 − (I/(I + IC50))], where I is the inhibitor concentration, and IC50 is the inflection point on the curve.

IC50 (CYP1A2; pooled HLMs 0.25 mg/mL, phenacetin 100 μM, read-out: IC50 P450 isoform 1A2) [µM] | SMILES | IC50 (CYP2J2) [µM] | IC50 (UGT2B7) [µM] | IC50 (CYP1A2) [µM]
> 50 | COc1ccc(C(=C2C=CC(=O)C=C2)c2c(-c3ccc(O)cc3)ccc(CO)c2C#Cc2ccc(O)cc2)cc1 [Selaginellin M] | 2.7 | 10.4 | 
 | O=C1C=CC(=C(c2ccc(O)cc2)c2c(-c3ccc(O)cc3)ccc(CO)c2C#Cc2ccc(O)cc2)C=C1 [Selaginellin] | 0.8 | 15.6 | 36.4
